Data reported in article PMC10299089, “Heterologous expression of genes from a cyanobacterial endosymbiont highlights substrate exchanges with its diatom host” (PNAS Nexus, 2023).

T1: RintHH_17430 (GlsR), periplasmic SBP (Richelia intracellularis, UniProt M1X141)
T1 construct: mature protein, signal peptidase II signal peptide removed, N-terminal Cys fused to Strep-tag II; pET28b(+), E. coli, StrepTrap
T1 sequence (M1X141 41-442): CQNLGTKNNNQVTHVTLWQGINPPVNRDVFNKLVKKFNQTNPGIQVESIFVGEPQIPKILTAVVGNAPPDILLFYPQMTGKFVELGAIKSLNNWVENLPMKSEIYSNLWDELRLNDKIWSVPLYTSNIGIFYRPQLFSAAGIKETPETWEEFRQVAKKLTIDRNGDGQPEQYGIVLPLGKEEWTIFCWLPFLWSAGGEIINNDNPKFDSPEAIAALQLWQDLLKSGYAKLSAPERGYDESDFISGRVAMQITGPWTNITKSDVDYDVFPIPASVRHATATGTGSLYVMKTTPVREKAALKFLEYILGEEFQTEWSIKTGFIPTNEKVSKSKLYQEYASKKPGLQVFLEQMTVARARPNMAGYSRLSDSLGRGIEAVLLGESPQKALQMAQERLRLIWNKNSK

T2: RintHH_11820 (NatB), SBP of N-I transporter (Richelia intracellularis, UniProt M1WZ73)
T2 construct: mature protein, signal peptide removed, N-terminal His tag, E. coli, nickel column
T2 sequence (M1WZ73 24-438): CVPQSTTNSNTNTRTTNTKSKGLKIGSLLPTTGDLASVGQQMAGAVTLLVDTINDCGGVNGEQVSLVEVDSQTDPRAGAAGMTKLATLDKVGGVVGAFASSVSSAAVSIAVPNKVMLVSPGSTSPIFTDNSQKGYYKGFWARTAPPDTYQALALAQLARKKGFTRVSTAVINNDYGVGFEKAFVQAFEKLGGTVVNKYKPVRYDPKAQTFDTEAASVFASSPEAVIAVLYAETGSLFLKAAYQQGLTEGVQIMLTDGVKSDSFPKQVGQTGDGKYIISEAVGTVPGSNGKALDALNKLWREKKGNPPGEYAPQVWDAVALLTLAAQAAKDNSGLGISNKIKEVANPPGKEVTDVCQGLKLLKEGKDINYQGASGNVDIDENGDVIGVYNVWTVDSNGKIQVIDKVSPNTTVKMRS

T3: RintHH_12770 (NatF), SBP of N-II transporter (Richelia intracellularis, UniProt M1WZB0)
T3 construct: mature protein, signal peptide removed, N-terminal His tag, E. coli, nickel column
T3 sequence (M1WZB0 22-348 limits assumed): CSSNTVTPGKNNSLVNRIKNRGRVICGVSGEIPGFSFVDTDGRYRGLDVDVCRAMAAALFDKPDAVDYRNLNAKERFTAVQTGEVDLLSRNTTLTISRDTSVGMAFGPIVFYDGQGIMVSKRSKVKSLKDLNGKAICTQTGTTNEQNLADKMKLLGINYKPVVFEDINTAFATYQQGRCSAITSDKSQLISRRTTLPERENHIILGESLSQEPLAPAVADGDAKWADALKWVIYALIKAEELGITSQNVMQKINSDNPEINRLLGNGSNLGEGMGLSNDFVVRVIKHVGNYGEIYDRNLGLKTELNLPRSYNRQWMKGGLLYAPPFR

B1: RintHH_3860 (InvB), neutral invertase (Richelia intracellularis HH01) (protein)
chain: MQPHKVILKDVEKDAWDTLEKTIIYYQGNPIGTVAALDSTANTLNYDQCFVRDFVVSALLFLIKGRTEIVRNFLKQTLKLQPKKKQLGTYKPGRGLMPASFKVTFNNGQEELEADFGENAIARVTPVDSSLWWIVLLRAYVVATKDYSLAYQDDFQQGIRLILDLCLATRFDMYPTLLVPDGACMIDRRLGIHGHPLEIQSLYYAALRAARELLICQGNEELVFAIDNRLPVLAAHIRKHYWIDLHRLNDIYRYRGEEYGKDAVNQFNIYVDSIPYSELDRWLPKGGGYLAGNVGPSQMDTRFFTLGNLMAVIIDLTTQEQSQAIMTLIEQRWDDLVGDMPMKITFPALENEEYKYVTGCDPKNIPWSYHNAGNWPVLMWMLAAACVKTNHRELMQRALTIAQERLKNDEWPEYYDGKQGRLIGRQSRKYQTWTIVGFLLAKEILAQPGSLSLISFDPFITKQVSQACELKFDYFDS
notes: synthetic gene in pET28b(+), expressed in E. coli; crude cell-free extract (purification unsuccessful)

Key:
[1] = biological target: T1, RintHH_17430 (GlsR), periplasmic SBP; assay: intrinsic Trp fluorescence quenching; type: binding; conditions: 0.02 mM protein, excitation 280 nm, emission ~340 nm
[2] = biological target: T2, RintHH_11820 (NatB), SBP of N-I transporter; assay: intrinsic Trp fluorescence quenching; type: binding; conditions: excitation 280 nm, emission ~340 nm; ligand ~116 µM
[3] = biological target: T3, RintHH_12770 (NatF), SBP of N-II transporter; assay: intrinsic Trp fluorescence quenching; type: binding; conditions: excitation 280 nm, emission ~340 nm; ligand ~7 µM
[4] = substrate: OC[C@H]1O[C@@](CO)(O[C@H]2O[C@H](CO)[C@@H](O)[C@H](O)[C@H]2O)[C@@H](O)[C@@H]1O; assay: glucose production by HPLC (Dionex), E. coli cell-free extract; type: biochemical, Richelia intracellularis; conditions: pH 7, 30 °C, 120 mM potassium phosphate, crude extract

| Molecule | % quenching [2] | also measured |
| --- | --- | --- |
| OC[C@H]1O[C@@](CO)(O[C@H]2O[C@H](CO)[C@@H](O)[C@H](O)[C@H]2O)[C@@H](O)[C@@H]1O [sucrose] |  | % quenching at 1 μM [1]: ~ 22.5% |
| CC(C)C[C@H](N)C(=O)O [L-Leu] | substantial quenching was produced by the neutral amino acids (L-Pro, L-Ala, L-Phe, Gly, and L-Leu) |  |
| N[C@@H](CCC(=O)O)C(=O)O [L-Glu] |  | % quenching [3]: substantial quenching was only seen with L-Glu |
| O=C(O)[C@@H]1CCCN1 [L-Pro] | substantial quenching was produced by the neutral amino acids (L-Pro, L-Ala, L-Phe, Gly, and L-Leu) |  |
| C[C@H](N)C(=O)O [L-Ala] | substantial quenching was produced by the neutral amino acids (L-Pro, L-Ala, L-Phe, Gly, and L-Leu) |  |
| NCC(=O)O [Gly] | substantial quenching was produced by the neutral amino acids (L-Pro, L-Ala, L-Phe, Gly, and L-Leu) |  |
| B1 |  | Km [4]: 25.7 mM |
